Test results reported in ChEMBL document CHEMBL5244212, “Recent advances in the rational design and development of LIM kinase inhibitors are not enough to enter clinical trials” (Eur J Med Chem, 2018).
One block for each compound: values may come before it.

Assays:
[1] = biological target: T1, LIM domain kinase 2 (Homo sapiens, UniProt P53671); experiment: Inhibition of LIMK2 (unknown origin) in presence of ATP at 200 uM
[2] = Half life in rat, iv at 1 mg/kg; format: ADME, organism-based; settings: in vivo
[3] = test system: MDA-MB-231; experiment: Cytotoxicity against human MDA-MB-231 cells assessed as reduction in cell viability incubated for 96 hrs at 3 uM by MTT method relative to control; format: functional
[4] = Inhibition of AbI (unknown origin); design: species or system Homo sapiens
[5] = biological target: T2, LIM domain kinase 1 (Homo sapiens, UniProt P53667); experiment: Inhibition of LIMK1 (unknown origin)
Target sequence in this assay (P53667 whole entry, the tested form may be a part): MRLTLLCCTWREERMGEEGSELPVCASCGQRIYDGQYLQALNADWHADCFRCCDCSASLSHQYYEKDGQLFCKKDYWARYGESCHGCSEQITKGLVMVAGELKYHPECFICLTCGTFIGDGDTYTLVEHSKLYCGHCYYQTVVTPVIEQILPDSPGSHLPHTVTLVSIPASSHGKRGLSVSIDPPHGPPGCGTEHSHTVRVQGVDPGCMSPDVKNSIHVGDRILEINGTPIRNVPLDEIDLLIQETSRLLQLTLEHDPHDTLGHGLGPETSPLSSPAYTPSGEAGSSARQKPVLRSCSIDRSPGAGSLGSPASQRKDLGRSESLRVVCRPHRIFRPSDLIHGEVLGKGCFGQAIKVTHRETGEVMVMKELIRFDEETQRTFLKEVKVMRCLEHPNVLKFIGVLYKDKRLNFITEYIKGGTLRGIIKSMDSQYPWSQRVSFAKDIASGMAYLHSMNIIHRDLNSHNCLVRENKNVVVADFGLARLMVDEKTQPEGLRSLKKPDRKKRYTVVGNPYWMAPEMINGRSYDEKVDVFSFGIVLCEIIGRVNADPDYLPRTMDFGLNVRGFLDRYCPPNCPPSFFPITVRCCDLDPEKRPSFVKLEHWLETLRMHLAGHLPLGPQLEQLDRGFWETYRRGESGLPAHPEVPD

[6] = biological target: T2, LIM domain kinase 1; experiment: Inhibition of LIMK1 (unknown origin) phosphorylation of cofilin
Target sequence in this assay (P53667 whole entry, the tested form may be a part): as above

[7] = test system: Human immunodeficiency virus; experiment: Antiviral activity against HIV at 10 uM relative to control; format: functional
[8] = test system: Human immunodeficiency virus; experiment: Antiviral activity against HIV at 1 uM relative to control; format: functional
[9] = test system: Human immunodeficiency virus; experiment: Antiviral activity against HIV at 100 uM relative to control; format: functional
[10] = biological target: T2, LIM domain kinase 1; experiment: Inhibition of human recombinant LIMK1
Target sequence in this assay (P53667 whole entry, the tested form may be a part): as above

[11] = biological target: T1, LIM domain kinase 2; experiment: Inhibition of human recombinant LIMK2
[12] = species: Mus musculus; experiment: Antiglaucoma activity in ocular […] mouse assessed as reduction in intraocular pressure at 15 ug measured after 4 hrs; format: functional; settings: dose 15 µg
[13] = biological target: T1, LIM domain kinase 2; experiment: Inhibition of LIMK2 (unknown origin) in presence of ATP at 25 uM
[14] = biological target: T2, LIM domain kinase 1; experiment: Inhibition of human LIMK1 (312 to 638 residues) expressed in Sf9 cells using […] as substrate incubated for 30 mins by micro-scintillation fluid method
Target sequence in this assay (P53667 whole entry, looked up, the tested form may be a part): as the sequence (P53667 whole entry, the tested form may be a part) above

[15] = biological target: T2, LIM domain kinase 1; experiment: Inhibition of human LIMK1 (321 to 647 residues) expressed in Sf9 cells using […] as substrate incubated for 30 mins by micro-scintillation fluid method
Target sequence in this assay (P53667 whole entry, the tested form may be a part): as above

[16] = biological target: T1, LIM domain kinase 2; experiment: Inhibition of LIMK2 (unknown origin)
[17] = species: Homo sapiens; experiment: Selectivity index, ratio of IC50 for ROCK2 (unknown origin) to IC50 for PKA (unknown origin)
[18] = biological target: cAMP-dependent protein kinase (PKA) (Homo sapiens) (UniProt P22694+P17612+P22612); experiment: Inhibition of PKA (unknown origin) assessed as fold increase; format: protein assay
[19] = cells; settings: Mus musculus, NF-1
Description: Cytotoxicity against mouse NF-1 cells assessed as reduction in cell growth

[20] = biological target: Rho-associated protein kinase 2 (Homo sapiens, UniProt O75116); experiment: Inhibition of human recombinant ROCK2 by ADP glo kinase assay
[21] = test system: PANC-1; experiment: Cytotoxicity against human PANC-1 cells assessed as reduction in cell growth relative to control; format: functional; design: scale not given: the % may be the effect or the level left
[22] = test system: PANC-1; experiment: Anti-tumor activity against human PANC-1 cells xenografted in athymic nude mouse assessed as reduction in tumor growth at 100 mg/kg, ip measured after 35 days relative to control; format: functional; design: scale not given: the % may be the effect or the level left; settings: time 35 day

T1 sequence (P53671 whole entry, the tested form may be a part): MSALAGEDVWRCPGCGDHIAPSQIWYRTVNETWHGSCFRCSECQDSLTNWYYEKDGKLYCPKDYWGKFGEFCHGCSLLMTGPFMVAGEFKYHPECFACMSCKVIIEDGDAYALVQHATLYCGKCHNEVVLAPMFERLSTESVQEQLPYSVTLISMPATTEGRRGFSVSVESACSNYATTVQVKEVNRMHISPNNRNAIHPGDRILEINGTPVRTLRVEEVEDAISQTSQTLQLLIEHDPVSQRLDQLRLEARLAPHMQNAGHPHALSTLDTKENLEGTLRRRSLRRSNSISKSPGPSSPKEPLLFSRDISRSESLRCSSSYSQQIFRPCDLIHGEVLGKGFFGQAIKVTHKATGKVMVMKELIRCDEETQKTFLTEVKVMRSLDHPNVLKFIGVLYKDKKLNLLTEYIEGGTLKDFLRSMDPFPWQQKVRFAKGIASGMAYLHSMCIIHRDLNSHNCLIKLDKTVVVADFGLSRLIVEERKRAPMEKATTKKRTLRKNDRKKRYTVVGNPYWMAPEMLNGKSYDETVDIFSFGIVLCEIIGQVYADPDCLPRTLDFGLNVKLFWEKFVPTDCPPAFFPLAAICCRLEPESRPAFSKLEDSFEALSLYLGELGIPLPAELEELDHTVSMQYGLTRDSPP
Chain of Rho-associated protein kinase 2 (O75116 whole entry): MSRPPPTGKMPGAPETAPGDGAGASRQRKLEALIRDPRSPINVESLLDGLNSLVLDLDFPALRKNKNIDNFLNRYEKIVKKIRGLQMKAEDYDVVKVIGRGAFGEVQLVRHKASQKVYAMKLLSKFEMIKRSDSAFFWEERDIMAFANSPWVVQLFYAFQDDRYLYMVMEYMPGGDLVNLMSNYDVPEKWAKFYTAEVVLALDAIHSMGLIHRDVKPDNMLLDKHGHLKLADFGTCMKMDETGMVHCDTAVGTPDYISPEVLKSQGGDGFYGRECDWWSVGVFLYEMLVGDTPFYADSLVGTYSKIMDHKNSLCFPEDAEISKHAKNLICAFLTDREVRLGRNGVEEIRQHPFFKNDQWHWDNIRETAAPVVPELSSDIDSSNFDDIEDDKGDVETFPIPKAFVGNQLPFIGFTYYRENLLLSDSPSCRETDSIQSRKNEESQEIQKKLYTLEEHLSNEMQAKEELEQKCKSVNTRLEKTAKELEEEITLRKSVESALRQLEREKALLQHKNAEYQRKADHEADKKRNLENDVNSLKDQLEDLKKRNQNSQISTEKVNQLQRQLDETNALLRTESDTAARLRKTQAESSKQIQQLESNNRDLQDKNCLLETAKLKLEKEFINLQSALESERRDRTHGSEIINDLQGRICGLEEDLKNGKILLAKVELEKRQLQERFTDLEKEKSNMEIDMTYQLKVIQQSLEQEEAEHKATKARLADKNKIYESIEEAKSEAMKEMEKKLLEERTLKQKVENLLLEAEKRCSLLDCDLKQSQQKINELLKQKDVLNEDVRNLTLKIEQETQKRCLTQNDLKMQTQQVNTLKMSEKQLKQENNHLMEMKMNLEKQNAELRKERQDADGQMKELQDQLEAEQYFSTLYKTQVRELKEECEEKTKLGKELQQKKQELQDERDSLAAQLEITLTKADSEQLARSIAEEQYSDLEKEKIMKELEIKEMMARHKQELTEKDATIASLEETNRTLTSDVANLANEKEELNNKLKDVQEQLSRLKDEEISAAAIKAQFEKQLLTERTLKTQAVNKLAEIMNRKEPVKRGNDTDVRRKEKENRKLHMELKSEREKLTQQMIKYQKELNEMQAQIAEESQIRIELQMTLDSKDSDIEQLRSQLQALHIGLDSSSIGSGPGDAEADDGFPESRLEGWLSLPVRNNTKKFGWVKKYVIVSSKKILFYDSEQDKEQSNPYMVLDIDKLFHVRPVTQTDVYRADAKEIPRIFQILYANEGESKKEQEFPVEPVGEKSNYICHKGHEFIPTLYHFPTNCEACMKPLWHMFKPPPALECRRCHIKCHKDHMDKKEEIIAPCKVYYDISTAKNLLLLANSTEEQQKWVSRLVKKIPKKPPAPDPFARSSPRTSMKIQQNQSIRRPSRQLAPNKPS

IC50 [1]: < 0.1 nM
Compound: COC(=O)Cc1cccc(NC(=O)C2(CN)CCN(c3ncnc4[nH]c5c(c34)CC(F)CC5)CC2)c1 (configuration not stated)

half-life [2]: 6 h
Compound: Cc1c[nH]c2ncnc(-c3ccc(NC(=O)N(CCN(C)C)c4ccc(Cl)cc4)cc3)c12

Compound: CC(C)CNc1ncc(-c2ccncc2-c2ccccc2Cl)s1
Activity [3]: 70%

IC50 [4]: 6 nM
Compound: CN(Cc1ccccc1)C(=O)c1ccc(S(=O)(=O)Nc2ccccc2)cc1

Compound: Cc1[nH]c2ncnc(N3CCC(CN)(C(=O)Nc4cccc(OC(=O)N(C)C)c4)CC3)c2c1C
IC50 [5]: 23 nM

IC50 [6]: 8 nM
Compound: COCCN(C(=O)Nc1ccc(-c2ncnc3[nH]c(C)c(C)c23)c(F)c1)c1ccc(Cl)cc1

Compound: COC(=O)c1ccc2[nH]c(C3CCN(c4ncnc5[nH]cc(Cl)c45)CC3)nc2c1
Activity [7]: 70%
Activity [8]: 50%
Activity [9]: 80%

IC50 [10]: 50 nM
IC50 [11]: 75 nM
Compound: Cc1c2cc[nH]c(=O)c2c(C)c2c1[nH]c1ccc(OC(=O)c3ccccc3)cc12

Compound: Cc1c[nH]c2ncnc(N3CCN(C(=O)Nc4cccc(OC(=O)N(C)C)c4)[C@@H](C)C3)c12
Activity [12]: 3 mmHg

Compound: Cc1c[nH]c2ncnc(N3CCC(C(=O)Nc4cccc(OC(=O)N(C)C)c4)C(C)C3)c12 (configuration not stated)
IC50 [13]: 210 nM

Compound: Cc1c[nH]c2ncnc(N3CCC(C(=O)Nc4cccc(OC(=O)N(C)C)c4)[C@@H](C)C3)c12 (some centres not stated)
IC50 [13]: 110 nM

IC50 [14]: 6 nM
IC50 [15]: 5 nM
Compound: O=C(Nc1ncc(-c2cc(C(F)F)nn2-c2c(Cl)cccc2Cl)s1)C1CC1

IC50 [16]: 0.1 nM
Compound: CN(C)C1(C(=O)Nc2cccc(-c3ccccc3)c2)CCN(c2ncnc3[nH]c4c(c23)CCCC4)CC1

Compound: O=C(CC1CCCN1)Nc1ncc(-c2cc(C(F)F)nn2-c2c(Cl)cccc2Cl)s1 (configuration not stated)
Activity [12]: 5 mmHg

Compound: CN(C)C(=O)Oc1cccc(NC(=O)C2(CN)CCN(c3ncnc4[nH]c5c(c34)CCCC5)CC2)c1
Selectivity Index [17]: 1
fold change (FC) [18]: 0.7

EC50 [19]: 30000 nM
Compound: CC(C)C(=O)Nc1ncc(-c2cc(C(F)F)nn2-c2c(Cl)cccc2Cl)s1

IC50 [20]: 18 nM
Compound: Cc1c[nH]c2ncnc(-c3ccc(NC(=O)Nc4cccc(C(=O)NC(C)C)c4)cc3F)c12

Compound: COc1cc(-c2nn(C3CCC(N4CCN(C)CC4)CC3)c3ncnc(N)c23)ccc1NC(=O)OCc1ccccc1 (configuration not stated)
IC50 [16]: 800 nM
IC50 [5]: 900 nM

Compound: Cc1ccc(-c2cnccc2-c2cnc(Nc3ccc(O)cc3)s2)c(Cl)c1
Activity [3]: 96%

Compound: Cc1cc(C(=O)Nc2cccc(C(=O)Nc3cccc(C(F)(F)F)c3)c2)on1
Activity [21]: 46%
Activity [22]: 80%
